In patent US7314866B2, “Ku-70-derived Bax-suppressing peptides and use thereof for the protection of damaged cells” (Bloodcenter of Wisconsin, Inc., priority 2002, dated 2008):
Where a SMILES comes first, the peptide text is derived from it. Where no end group is shown, it is not given here.

How the values were obtained:
HEK293T cells = assay: Bax-induced apoptosis in HEK293T cells (pcDNA3-Bax transfection, Hoechst staining); type: cell-based, human; settings: for Suppression of Bax-induced apoptosis: peptide delivered into the cells by liposome (BioPorter); for Suppression of Bax-induced apoptosis by co-transfected Ku70 mutant: 2.0 ug pCMV-2B construct co-transfected with pcDNA3-Bax
Experimental: FIG. 1 illustrates that new peptides designed from Ku70 show anti-Bax activity. FIG. 1A: scheme of Ku70 full-length (Ku70 wt), Ku701-577 (Ku70Δ578–609), or Ku70578-609 (Ku70Δ1–577). FIG. 1C: HEK293T cells were transfected with 1.0 ug of pCMV-2B-control vector (Control) or pcDNA3-Bax (Bax) together with 2.0 ug of pCMV-2B-Ku70 wt (Ku70 wt), pCMV-2B-Ku701-577 (Ku701-577), or pCMV-2B-Ku70578-609 (Ku70578-609). All the cells were also co-transfected with 0.5 ug pEGFP for the marking of transfected cells. Apoptosis in the transfected cells was analyzed 24 hours following transfection with Hoechst dye staining of the nucleus as described in Methods. FIG. 1D: HEK293T cells were incubated with 200 uM peptide composed of Ku70578-587 or Ku70596-600 for 4 hours using BioPorter reagent, and then transfected with 1.0 ug of pCDNA3-control vector (Control) or pcDNA3-Bax (Bax). The number of apoptotic cells was determined as described in FIG. 1C. FIG. 1E: HEK293T cells (10^6 cells) were incubated with 200 uM IPMIK (negative control peptide) or VPMLK (V5) and PMLKE (P5) peptides at the indicated concentrations for 1 hour and then incubated cells were transfected with 1.0 ug of pcDNA3-Bax. Also, unincubated cells were transfected with 1.0 ug of pcDNA3-Bax in the presence or absence of 200 uM z-VAD-fmk. The number of apoptotic cells was determined as described in FIG. 1C. FIG. 1F: Summary of the anti-Bax activity and sequence of all peptides used.
HEK293T and HeLa cells were cultured in MEM supplemented with 10% fetal bovine serum (FBS) and Du145 cells and mouse embryonic fibroblasts (MEFs) were in DMEM with 10% FBS. Transfection of the plasmids was performed by SuperFect (Qiagen) according to the manufacturer's manual. Apoptosis was induced by pcDNA3-human Bax (Bax-encoding plasmid)-transfection, Staurosporin (STS)-treatment and UVC-irradiation. The amount of the plasmids, the concentration of STS, and the energy of UVC-irradiation are described in the figure legends. Apoptosis in the transfected cells was analyzed as follows: A plasmid encoding enhanced green fluorescent protein (EGFP) (0.5 ug to 10^6 cells) was transfected to all the groups to mark the transfected cells. After the treatment, cells were stained with Hoechst dye and cells with apoptotic nuclei were counted in GFP-expressing cells under the fluorescent microscope as described by Matsuyama, et al., J. Biol. Chem. 273:30995–31001, 1998. Each point in the figures showing percentages of apoptosis represents the mean +/−SE of three experiments. Caspase activities of cells were measured by detecting the cleavage of fluorogenic substrate of Caspase (DEVD-afc) as previously described.
BioPorter-based peptide delivery was performed 4 hours before apoptosis induction.

[1] = Membrane permeability and cellular retention of peptides; type: in vitro ADME
[2] = target: T1, interaction of Ku70 and Bax (Homo sapiens, UniProt Q07812); assay: Co-immunoprecipitation of endogenous Ku70 and Bax in cell lysates with added peptide; type: binding; settings: peptide added to cell lysates
T1 construct: endogenous in cells; HeLa and 293 cells for the V6 peptide
Experimental: FIGS. 6A–D: HEK293T cells (10^7 cells) lysed in CHAPS buffer were incubated with 200 uM negative control (NC) peptide or (A) VPMLK (V5, SEQ ID NO: 1), (B) PMLKE (P5, SEQ ID NO: 2), (C) PMLK (P4, SEQ ID NO: 3), and (D) MLKE (M4, SEQ ID NO: 6) at the indicated concentrations for 1 hour. Immunoprecipitation was performed with anti-Ku70 monoclonal antibody or anti-Bax polyclonal antibody using CHAPS buffer as described in Methods. Mouse IgG and pre-immune rabbit serum (NRS) were used as negative controls.
By testing several deletion mutants of the Ku70 protein, I have identified the Bax-binding domain in Ku70. The domain comprises 6 amino acids (VPMLKE, SEQ ID NO: 7). This peptide (Ku70 Peptide V6) inhibits the interaction of Ku70 and Bax at the concentration of 20–80 μM in lysates prepared from human cultured cells (HeLa cells and human kidney epithelial 293 cells).
Endogenous protein: HEK293T (10^7 cells) were lysed in 200 ul of “CHAPS-based buffer” (150 mM NaCl, 10 mM Hepes, pH 7.4, 1.0% CHAPS) containing protease inhibitors (100 times dilution of Protease Inhibitors Cocktail; Sigma) according to the previously reported method (Hsu and Youle, J. Biol. Chem. 273:10777–10783, 1998). […]

endogenous Bax = target: T2, endogenous Bax (Homo sapiens, UniProt Q07812); assay: Co-immunoprecipitation of Flag-tagged Ku70 mutants and endogenous Bax; type: binding; settings: HEK293T cells
T2 construct: endogenous in cells; host or cells: HEK293T
Experimental: Endogenous protein: HEK293T (10^7 cells) were lysed in 200 ul of “CHAPS-based buffer” (150 mM NaCl, 10 mM Hepes, pH 7.4, 1.0% CHAPS) containing protease inhibitors (100 times dilution of Protease Inhibitors Cocktail; Sigma) according to the previously reported method (Hsu and Youle, J. Biol. Chem. 273:10777–10783, 1998). After precleaning of 600 ul of the sample with 50 ul of Protein G-Sepharose at 4° C. for 1 hour, immunoprecipitations were performed by incubating 200 ul of lysates with 20 ul of Protein G-Sepharose preabsorbed with 2 ug of anti-Bax polyclonal (BD-Pharmingen) or anti-Ku70 monoclonal antibody (BD-Pharmingen) at 4° C. for 2 hours. In some cases, 2 ug of anti-Bax monoclonal antibody (clone 6A7, BD Pharmingen) was used to detect active form of Bax. After extensive washing in the buffer, beads were boiled in 40 ul of Laemmli buffer and 20 ul of the eluted proteins were subjected to SDS-PAGE. Co-precipitation of biotin-labeled peptides and endogenous Bax using streptavidin beads: HEK293T cells (10^7 cells) lysed in 200 ul CHAPS-based buffer were incubated with biotin-labeled negative control (NC) peptide or VPMLK (V5; SEQ ID NO: 1) peptide for 1 hour. The concentrations of NC and V5 peptide labeled with biotin are described in the figure legends. […]

human Bax = target: T3, human Bax (human, UniProt Q07812 1-192); assay: fluorescence microscopy of HeLa cells and of Du145 cells with or without pcDNA3-Bax
T3 construct: Protein in cell lysates or cells, not purified; also called endogenous Bax; pcDNA3-Bax (human)
Experimental: HeLa cells and transfected or untransfected Du145 cells with pcDNA3-Bax were incubated with 200 uM FITC-labeled VPMLK (V5; SEQ ID NO: 1) peptide for 1 hour prior to microscopic analysis by fluorescent microscope. For immunostaining, cells incubated with FITC-V5 peptide for 1 hour were fixed with 4% paraformaldehyde in phosphate buffered saline (PBS). Cells were permeablized with 0.5% Triton X-100 and 0.05% Tween-20 in PBS. Fixed cells were incubated in PBS containing 5% BSA at 37 C, and stained with anti-Bax monoclonal antibody (BD-Pharmingen, dilution 1:50) followed by the detection of Texas-Red labeled anti-mouse IgG (Jackson ImmunoResearch, dilution 1:100).

[3] = target: T4, endogenous Bax in Ku70-deficient mouse embryonic fibroblasts (mouse, UniProt Q07813 1-192); assay: Scatchard analysis; FITC fluorescence before and after immunoprecipitation of Bax from Ku70-deficient MEF cytosol
T4 construct: also called endogenous Bax in Ku70-deficient MEFs
Experimental: The interaction of BIP and Bax was confirmed by experiments using the system of biotin-labeled BIP and streptavidin beads. Biotin-labeled BIP (biotin-VPMLK; SEQ ID NO: 1), but not negative control peptide (biotin-IPMIK; SEQ ID NO: 5) precipitated Bax from the cell lysates when the streptavidin beads were added to the samples.
Ku70-deficient MEFs (10^7 cells) were lysed in 200 ul of "detergent-free hypotonic buffer" (hypotonic (5 mM NaCl) phosphate buffered saline, pH 7.4) containing protease inhibitors (100 times dilution of Protease Inhibitors Cocktail; Sigma) according to the previously reported method (Hsu and Youle, supra, 1998). For Scatchard analysis, the cytosol fraction was used and NaCl was added to prepare the isotonic condition before immunoprecipitation as previously reported (Hsu and Youle, supra, 1998). […] FITC fluorescence of pre-immunoprecipitation ("B"+"F") and the supernatant following immunoprecipitation ("F") were measured by fluorescence microplate reader (Molecular Devices), and the values of "B+F" and "B" were calculated. Kd was calculated by Scatchard plot. […] No significant binding of FITC-V5 to the cellular components was detected in Bax-immunodepleted samples.

T2 sequence (Q07812 whole entry): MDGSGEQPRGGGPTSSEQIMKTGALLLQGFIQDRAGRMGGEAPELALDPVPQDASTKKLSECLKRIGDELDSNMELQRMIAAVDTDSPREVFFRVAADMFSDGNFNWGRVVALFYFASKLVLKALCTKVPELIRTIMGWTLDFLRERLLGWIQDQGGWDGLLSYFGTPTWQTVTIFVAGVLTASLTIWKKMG
T1 sequence (Q07812 whole entry): as above
T4 sequence (Q07813 whole entry): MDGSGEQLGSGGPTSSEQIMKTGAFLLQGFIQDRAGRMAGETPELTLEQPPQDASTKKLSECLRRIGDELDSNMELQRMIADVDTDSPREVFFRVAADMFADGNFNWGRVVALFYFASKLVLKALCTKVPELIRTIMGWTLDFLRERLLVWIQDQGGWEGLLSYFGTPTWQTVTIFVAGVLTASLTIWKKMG
T3 sequence (Q07812 whole entry): as the sequence (Q07812 whole entry) above

578–587: synthetic peptide of Ku70 amino acids 578–587, 2nd α-helix from the C-terminus (VPMLKEACRA; UniProt P12956 578-587, looked up, fragment)
Suppression of Bax-induced apoptosis (HEK293T cells): inhibited Bax-induced apoptosis

596–600: synthetic peptide of Ku70 amino acids 596–600 (KQELL; UniProt P12956 596-600, looked up, fragment)
Suppression of Bax-induced apoptosis (HEK293T cells): not

CSCC[C@H](NC(=O)[C@@H]1CCCN1)C(=O)N[C@@H](CC(C)C)C(=O)N[C@@H](CCCCN)C(=O)N[C@@H](CCC(=O)O)C(=O)O [PMLKE] (H-PMLKE-OH; N-terminus and C-terminus assumed)
Membrane permeability [1]: membrane permeable | Retention of the peptide in the cell [1]: effectively retained inside the cells

CSCC[C@H](NC(=O)[C@@H]1CCCN1)C(=O)N[C@@H](CC(C)C)C(=O)N[C@@H](CCCCN)C(=O)O [PMLK] (H-PMLK-OH; N-terminus and C-terminus assumed)
Retention of the peptide in the cell [1]: not retained in the cell

CSCC[C@H](NC(=O)[C@@H]1CCCN1C(=O)[C@@H](N)C(C)C)C(=O)N[C@@H](CC(C)C)C(=O)N[C@@H](CCCCN)C(=O)N[C@@H](CCC(=O)O)C(=O)O [VPMLKE] (H-VPMLKE-OH; N-terminus and C-terminus assumed)
Membrane permeability [1]: not membrane permeable

CSCC[C@H](NC(=O)[C@@H]1CCCN1C(=O)[C@@H](N)C(C)C)C(=O)N[C@@H](CC(C)C)C(=O)N[C@@H](CCCCN)C(=O)O [VPMLK] (H-VPMLK-OH; N-terminus and C-terminus assumed)
Membrane permeability [1]: membrane permeable | Retention of the peptide in the cell [1]: effectively retained inside the cells

Ku70 Peptide NC: immediate next six amino acid sequence of Ku70, negative control (LGKFTV) [reference compound]
Effect on the interaction of Ku70 and Bax [2]: did not affect the interaction of Ku70 and Bax

Ku701-577: Ku70 mutant deleted of amino acids 578–609
Suppression of Bax-induced apoptosis by co-transfected Ku70 mutant (HEK293T cells): not | Binding of Flag-tagged Ku70 mutant to endogenous Bax (endogenous Bax): did not

Ku70578-609: Flag-tagged Ku70 mutant expressing the amino acids 578–609 of Ku70 (VPMLKEACRAYGLKSGLKKQELLEALTKHFQD; also: Flag-tagged)
Suppression of Bax-induced apoptosis by co-transfected Ku70 mutant (HEK293T cells): suppressed Bax-induced apoptosis | Binding of Flag-tagged Ku70 mutant to endogenous Bax (endogenous Bax): binds endogenous Bax

MLKE [four amino acid deletion peptide]
Effect on the interaction of Ku70 and Bax [2]: did not interfere with Bax-Ku70 interaction

VPMLK (also: FITC-labeled, position of label not given here, also called FITC-BIP; FITC-V5) [FITC-labeled BIP (VPMLK; SEQ ID NO: 1)]
binding result (human Bax): binds | Kd [3]: 1300 nM
